We go through three compounds from ChEMBL document CHEMBL4616698, “Scaffold Repurposing of in-House Chemical Library toward the Identification of New Casein Kinase 1 δ Inhibitors” (ACS Med Chem Lett, 2020).

The target of assay [1] is Casein kinase I isoform delta (Homo sapiens, UniProt P48730). Kind of assay: Inhibition of full length recombinant human GST-tagged CSNK1D expressed in baculovirus expression system using casein as substrate incubated for 10 mins in presence of ATP by KinaseGlo luminescence assay.
Assay [2] concerns the target Casein kinase 1, delta tv1 (Sus scrofa, UniProt M3VH47). Kind of assay: Inhibition of porcine brain CK-1delta using RRKHAAIGpSAYSITA peptide as substrate incubated for 30 mins in presence of [gamma-33P]-ATP by scintillation counting method.

Chain of Casein kinase I isoform delta (P48730 whole entry, canonical isoform): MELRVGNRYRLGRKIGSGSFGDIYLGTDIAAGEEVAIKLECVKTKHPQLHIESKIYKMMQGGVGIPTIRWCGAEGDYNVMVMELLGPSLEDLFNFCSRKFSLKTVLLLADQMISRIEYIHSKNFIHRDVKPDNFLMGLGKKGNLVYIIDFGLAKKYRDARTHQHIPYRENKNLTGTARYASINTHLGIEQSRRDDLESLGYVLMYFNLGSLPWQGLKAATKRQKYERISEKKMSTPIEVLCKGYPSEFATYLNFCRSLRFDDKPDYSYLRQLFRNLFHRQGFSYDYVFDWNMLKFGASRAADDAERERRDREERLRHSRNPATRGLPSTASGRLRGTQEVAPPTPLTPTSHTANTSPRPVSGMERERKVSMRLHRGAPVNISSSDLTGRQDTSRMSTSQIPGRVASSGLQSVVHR
Chain of Casein kinase 1, delta tv1 (M3VH47 whole entry): as the sequence (P48730 whole entry, canonical isoform) above, with V340A, P401A, S406A, V412A counted along it

On to `Oc1cc(-c2cccc(Br)c2)nc2ccc3[nH]ccc3c12`, for which the IC50 (in general, the concentration needed to halve the response being measured) in assay [1] is 13 µM.
Still for that read-out and setting: as for `CCn1ccc2c3c(=O)cc(-c4cccc5ccccc45)[nH]c3ccc21`, the figure is 15.2 µM.
With `Nc1nccc(-c2c(-c3ccc(F)cc3)ncn2C2CCCCC2)n1`, the half-inhibitory concentration (IC50) in assay [2] was determined as 0.0077 µM.
